Measured values published in paper PMC8834192 (2022).

Key:
[1] = tested on: Z0 (DNA, aptamer) CTACCAGCTTTGAGGCTCGATCCAGCTTATTCAATTATACCAGCTTATTCAATTATACCAGC; experiment: UV-Vis absorbance at 260 nm of released strand; settings: room temperature; partially complementary strand Z1 displaced from bead-bound Z0Z1
[2] = tested on: Z0 (DNA, aptamer) CTACCAGCTTTGAGGCTCGATCCAGCTTATTCAATTATACCAGCTTATTCAATTATACCAGC; experiment: circular dichroism; settings: Z0Z1 partial duplex; Z1 (S3) displaced; buffer not stated

binding [1]: yes
binding [2]: yes
SMILES: C[C@H]1CCCC(=O)CCC/C=C/c2cc(O)cc(O)c2C(=O)O1
